Source: patent publication US9549930B2, “Combined systemic and topical treatment of disordered and/or prodromal stage tissue” (priority 2013, dated 2017)

Columns and labels:
[1] = cited from earlier work
Herpes Zoster (HZV) = experiment: Case histories: systemic anti-viral drug alone for shingles; format: in vivo, human
Excerpt: A person with a clinical history of recurrent Herpes Zoster (HZV) (or in layman's terms, shingles) experienced a recurrent outbreak after a stressful week at work and a weekend in the sun following a trip to a tanning booth. (It is known that stress and UV-B can both trigger herpetic outbreaks.) This subject had their first episode with HZV about one year prior. They were diagnosed by their physician and given a prescription for Zovirax (acyclovir). They took the Zovirax, but experienced lesions lasting 3-4 weeks and experienced over 12 weeks of post-herpetic neuralgia. The previous episode included all the classic stages, including weeping, but only involved several very small lesions.
A person was vacationing in California when they developed a red rash and subsequent lesions on their right buttock. They were diagnosed with herpes zoster (shingles) on day 2, after first signs and symptoms were noted, and was prescribed valacyclovir (Valtrex) per label.
As […] to get to their home from California, they and their spouse elected to extend their time in California.
The patient initially went to the doctor in the early stages of the infection when it was only on their leg. The doctor diagnosed the condition as shingles and prescribed the patient Valtrex. […] The bumps were smaller but they kept spreading. The doctor advised them to keep taking the Valtrex. Once the patient finished the first prescription of Valtrex, the doctor provided a second Valtrex prescription. […] The sores remained the same size although the sores on the patient's leg were much larger than on their lower trunk.
A person had shingles on their neck and shoulders. Their sibling is a physician and diagnosed shingles and prescribed a nucleoside drug according to FDA approved labeling. The lesions had started to propagate down the affected dermatomes of the shoulder and neck. The lesions continued to progress despite anti-viral therapy.

[2] = cited from earlier work; remark: listed apart in the source
[3] = Example 4, person, first HZV episode, Zovirax alone

| SMILES | solubility in water [1] | duration of post-herpetic neuralgia (Herpes Zoster (HZV); [3]) | lesions lasting (Herpes Zoster (HZV); [3]) | absorption from the gastrointestinal tract ([2]; after oral administration) | state on day 18 after first signs, after completed regimen (Herpes Zoster (HZV); Example 6, Valtrex regimen as prescribed) | effect on shingles initially (Herpes Zoster (HZV); Example 6, person, Valtrex per label from day 2) | state of sores after first prescription finished (Herpes Zoster (HZV); Example 8, Valtrex alone) | course of lesions shortly after first doses (Herpes Zoster (HZV); Example 8, person, Valtrex alone) | bioavailability ([2]; oral administration, shown in U.S. Pat. No. 4,957,924) |
| --- | --- | --- | --- | --- | --- | --- | --- | --- | --- |
| Nc1nc2c(ncn2COCCO)c(=O)[nH]1 [Aciclovir, 9-(2-hydroxyethoxymethyl)guanine] | poorly soluble in water | over 12 weeks | 3-4 weeks | poorly absorbed | – | – | – | – | – |
| CC(C)[C@H](N)C(=O)OCCOCn1cnc2c(=O)[nH]c(N)nc21 [Valtrex] | – | – | – | – | still had open herpetic lesions | little noticeable effect initially | still open and large | the lesions spread up the patient's leg and to their lower trunk | improved bioavailability |
